From ChEMBL document CHEMBL1150541, “Penem inhibitors of bacterial signal peptidase” (Bioorg Med Chem Lett, 1995)
Where a SMILES comes first, the peptide text is derived from it.

Legend:
Signal peptidase I = Signal peptidase I (Escherichia coli K-12, UniProt P00803); test: Inhibitory activity against Escherichia coli leader peptidase using substrate A; conditions: read-out: I50
[1] = target: Signal peptidase I (Escherichia coli K-12) (UniProt P00803); test: Inhibitory activity against Escherichia coli leader peptidase at a concentration of 100 uM
[2] = Inhibitory activity against Escherichia coli leader peptidase using substrate B; conditions: read-out: I50
[3] = Inhibitory activity against Escherichia coli leader peptidase using substrate A.; conditions: read-out: I50
Escherichia coli [4] = test: Compound was evaluated for Michaelis-Menten constant (Km)
Escherichia coli [5] = conditions: 100 uM

Chain of Signal peptidase I (Escherichia coli K-12) (P00803 whole entry): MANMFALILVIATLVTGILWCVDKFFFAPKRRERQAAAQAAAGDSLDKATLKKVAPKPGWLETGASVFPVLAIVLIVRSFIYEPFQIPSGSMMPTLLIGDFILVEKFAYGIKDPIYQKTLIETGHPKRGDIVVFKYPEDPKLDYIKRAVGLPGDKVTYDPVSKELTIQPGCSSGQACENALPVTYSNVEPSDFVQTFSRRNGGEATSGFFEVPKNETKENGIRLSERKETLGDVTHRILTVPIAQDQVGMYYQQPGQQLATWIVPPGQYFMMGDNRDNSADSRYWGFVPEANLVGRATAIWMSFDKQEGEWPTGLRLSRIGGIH
Chain of Signal peptidase I (P00803 whole entry): as above

| SMILES | IC50 (Signal peptidase I) | inhibition [1] | other results |
| --- | --- | --- | --- |
| O=C(OCc1ccccc1)C1=CS[C@H]2CC(=O)N12 | 3 µM | 100% |  |
| C=CCOC(=O)C1=CS[C@H]2[C@@H]([C@H](C)OC(C)=O)C(=O)N12 |  | 0% |  |
| C=CCOC(=O)C1=CS[C@@H]2[C@@H]([C@H](C)OC(C)=O)C(=O)N12 |  | 0% |  |
| C=CCOC(=O)C1=CS[C@H]2[C@@H]([C@@H](C)O)C(=O)N12 | 0.92 µM | 100% | IC50 [2]: 0.18 µM |
| C=CCOC(=O)C1=CS[C@@H]2[C@H]([C@H](C)OC(C)=O)C(=O)N12 |  | 20% |  |
| CC(C)(C)NC(=O)C1=CSC2CC(=O)N12 (stereo not drawn) |  | 0% |  |
| O=C(C1=CSC2CC(=O)N12)N1CCCC1 (stereo not drawn) |  | 93% | IC50 [3]: 10 µM |
| C=CCOC(=O)C1=CS[C@@H]2[C@@H]([C@@H](C)OC(C)=O)C(=O)N12 |  | 64% |  |
| C=CCOC(=O)C1=CS[C@H]2[C@@H]([C@@H](C)OC(C)=O)C(=O)N12 [listing 1 of 3 here] | 1.8 µM |  |  |
| C=CCOC(=O)C1=CS[C@H]2[C@@H]([C@@H](C)OC(C)=O)C(=O)N12 [listing 2 of 3 here] | 0.85 µM |  | IC50 [2]: 0.07 µM |
| C=CCOC(=O)C1=CS[C@H]2[C@@H]([C@@H](C)OC(C)=O)C(=O)N12 [listing 3 of 3 here] |  | 100% |  |
| O=C(OCCCCc1ccccc1)C1=CSC2CC(=O)N12 (stereo not drawn) | 13 µM | 83% |  |
| C=CCOC(=O)C1=CS[C@@H]2[C@@H](CC)C(=O)N12 |  | 19% |  |
| O=C(C1=CSC2CC(=O)N12)N1CCOCC1 (stereo not drawn) | 115 µM | 79% |  |
| CC[C@H](C)[C@H](NC(=O)[C@H](CCCCN)NC(=O)[C@H](C)NC(=O)[C@H](CC(C)C)NC(=O)[C@H](C)NC(=O)[C@H](CO)NC(=O)[C@H](C)NC(=O)[C@H](CO)NC(=O)[C@@H](N)Cc1ccccc1)C(N)=O (H-FSASALAKI-NH2) |  |  | Km (Escherichia coli [4]): 1000 µM |
| CCCCCCCCCCCCCCCCOC(=O)C1=CSC2CC(=O)N12 (stereo not drawn) |  | 0% |  |
| O=C(OCc1ccccc1)C1=CSC2CC(=O)N12 (stereo not drawn) | 10 µM |  | inhibition (Escherichia coli [5]): 100% |
| C=CCOC(=O)C1=CSC2CC(=O)N12 (stereo not drawn) | 10 µM | 93% |  |
| COCOC(=O)C1=CSC2CC(=O)N12 (stereo not drawn) | 6 µM | 100% |  |
| CCN(CC)C(=O)C1=CSC2CC(=O)N12 (stereo not drawn) | 58 µM | 86% |  |
| CCCCCOC(=O)C1=CSC2CC(=O)N12 (stereo not drawn) | 21 µM | 100% |  |
| CN(Cc1ccccc1)C(=O)C1=CSC2CC(=O)N12 (stereo not drawn) | 50 µM | 88% |  |
| C=CCOC(=O)C1=CS[C@H]2[C@@H](CC)C(=O)N12 | 20 µM | 84% |  |
| O=C(O)C1=CSC2CC(=O)N12 (stereo not drawn) | 600 µM | 0% |  |
| CC[C@H](C)[C@H](NC(=O)[C@H](CCCCN)NC(=O)[C@H](C)NC(=O)[C@H](CC(C)C)NC(=O)[C@H](C)NC(=O)[C@H](CO)NC(=O)[C@H](C)NC(=O)[C@H](CO)NC(=O)[C@@H](N)Cc1c[nH]c2ccccc12)C(N)=O (H-WSASALAKI-NH2) |  |  | Km (Escherichia coli [4]): 300 µM |

Continued, in another order:

| IC50 (Signal peptidase I) | inhibition [1] | SMILES | other results |
| --- | --- | --- | --- |
| 87 µM | 77% | COc1ccc(NC(=O)C2=CSC3CC(=O)N23)cc1 (stereo not drawn) |  |
| 58 µM | 86% | O=C(Nc1ccccc1)C1=CSC2CC(=O)N12 (stereo not drawn) |  |
| 4 µM | 100% | COC(=O)C1=CSC2CC(=O)N12 (stereo not drawn) |  |
| 50 µM | 85% | O=C(OCc1ccc([N+](=O)[O-])cc1)C1=CSC2CC(=O)N12 (stereo not drawn) |  |
|  | 31% | O=C(OCc1ccc(C(=O)O)cc1)C1=CSC2CC(=O)N12 (stereo not drawn) |  |
| 3 µM | 100% | COC(=O)c1ccc(COC(=O)C2=CSC3CC(=O)N23)cc1 (stereo not drawn) |  |
|  | 0% | O=C(OCc1ccccc1)C1=CS[C@@H]2CC(=O)N12 |  |
|  | 34% | O=C(NCc1ccccc1)C1=CSC2CC(=O)N12 (stereo not drawn) |  |
|  | 0% | COc1ccc(COC(=O)C2=CS[C@@H]3CC(=O)N23)cc1 |  |
| 8 µM | 72% | COC(=O)c1cccc(COC(=O)C2=CSC3CC(=O)N23)c1 (stereo not drawn) |  |
| 7 µM | 100% | COc1ccc(COC(=O)C2=CSC3CC(=O)N23)cc1 (stereo not drawn) |  |
